Patent publication US8124610B2, “Sodium channel inhibitors” (Icagen Inc., priority 2007, dated 2012)

Molecular target: T1, hSCN9A (Homo sapiens, UniProt Q15858)
T1 construct: expressed in transfected cells
Test: Whole-cell patch-clamp electrophysiology (conventional or PatchXpress), HEK cells expressing hSCN9A, estimated IC-50
Type: cell-based
Conditions: estimated IC-50, HEK cells expressing hSCN9A; class symbols or bounds; read-out: SCN9A EIC-50
Procedure, shortened: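 Current through each channel was evoked by a 20 ms step to 0 mV following an 8 s conditioning prepulse at the cell's own half-inactivation voltage. Recordings used HEK lines stably expressing the channel, conventional or PatchXpress patch clamp, room temperature, pH 7.4 bath; inhibition taken as pre/post-compound amplitude change.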

T1 sequence (Q15858 whole entry): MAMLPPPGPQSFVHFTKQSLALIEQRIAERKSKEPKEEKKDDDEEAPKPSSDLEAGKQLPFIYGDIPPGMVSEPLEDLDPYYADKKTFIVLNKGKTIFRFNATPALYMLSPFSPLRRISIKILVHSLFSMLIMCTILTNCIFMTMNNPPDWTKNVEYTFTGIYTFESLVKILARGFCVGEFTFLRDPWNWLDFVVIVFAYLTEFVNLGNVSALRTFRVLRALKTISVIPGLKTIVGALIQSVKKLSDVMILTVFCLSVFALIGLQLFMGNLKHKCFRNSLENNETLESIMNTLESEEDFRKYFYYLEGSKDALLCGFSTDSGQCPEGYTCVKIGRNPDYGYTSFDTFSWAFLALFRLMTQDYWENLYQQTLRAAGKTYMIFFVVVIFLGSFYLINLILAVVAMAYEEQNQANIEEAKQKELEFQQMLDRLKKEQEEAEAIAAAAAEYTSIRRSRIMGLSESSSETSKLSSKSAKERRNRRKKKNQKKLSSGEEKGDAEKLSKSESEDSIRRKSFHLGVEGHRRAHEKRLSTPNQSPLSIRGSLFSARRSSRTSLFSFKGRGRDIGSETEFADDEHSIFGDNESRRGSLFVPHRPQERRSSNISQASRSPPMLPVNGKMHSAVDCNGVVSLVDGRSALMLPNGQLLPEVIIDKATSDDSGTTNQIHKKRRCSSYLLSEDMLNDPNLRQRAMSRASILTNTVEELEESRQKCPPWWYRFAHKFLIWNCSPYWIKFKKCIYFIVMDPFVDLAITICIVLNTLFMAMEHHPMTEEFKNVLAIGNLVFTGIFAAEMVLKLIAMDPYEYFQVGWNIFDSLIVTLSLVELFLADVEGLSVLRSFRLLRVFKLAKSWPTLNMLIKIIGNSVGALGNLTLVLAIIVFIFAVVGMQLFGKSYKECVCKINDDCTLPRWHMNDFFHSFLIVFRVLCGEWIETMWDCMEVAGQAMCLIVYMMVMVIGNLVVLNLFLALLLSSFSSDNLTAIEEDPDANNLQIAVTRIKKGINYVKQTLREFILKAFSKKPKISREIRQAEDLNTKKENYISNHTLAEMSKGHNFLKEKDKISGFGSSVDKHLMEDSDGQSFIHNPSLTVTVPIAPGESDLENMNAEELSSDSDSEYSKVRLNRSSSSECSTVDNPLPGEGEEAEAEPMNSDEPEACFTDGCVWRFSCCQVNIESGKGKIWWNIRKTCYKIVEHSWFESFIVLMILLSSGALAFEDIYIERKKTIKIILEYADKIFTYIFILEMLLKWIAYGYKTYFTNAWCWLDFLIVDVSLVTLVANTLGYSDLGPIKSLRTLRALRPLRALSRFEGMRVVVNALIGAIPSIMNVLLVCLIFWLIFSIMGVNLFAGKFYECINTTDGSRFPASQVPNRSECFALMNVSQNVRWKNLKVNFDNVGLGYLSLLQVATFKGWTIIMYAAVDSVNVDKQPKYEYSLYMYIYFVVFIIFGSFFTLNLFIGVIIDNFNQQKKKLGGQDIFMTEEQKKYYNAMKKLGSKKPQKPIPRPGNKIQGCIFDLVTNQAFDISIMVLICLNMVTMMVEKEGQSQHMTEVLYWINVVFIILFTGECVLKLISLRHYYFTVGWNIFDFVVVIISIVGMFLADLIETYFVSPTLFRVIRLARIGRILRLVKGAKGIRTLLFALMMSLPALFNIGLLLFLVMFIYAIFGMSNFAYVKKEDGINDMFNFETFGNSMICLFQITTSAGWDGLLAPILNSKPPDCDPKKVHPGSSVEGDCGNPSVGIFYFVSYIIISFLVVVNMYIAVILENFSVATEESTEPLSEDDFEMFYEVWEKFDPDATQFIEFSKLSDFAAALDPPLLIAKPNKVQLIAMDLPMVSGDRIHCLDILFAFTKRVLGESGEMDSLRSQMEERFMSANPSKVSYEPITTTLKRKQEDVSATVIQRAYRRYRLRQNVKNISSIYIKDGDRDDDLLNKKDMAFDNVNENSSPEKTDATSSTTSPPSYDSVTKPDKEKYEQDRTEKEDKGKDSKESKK

Row | Compound | IC50 [nM]
1 | Cn1nc(Cc2ccc(Cl)c(F)c2)cc1Nc1ccc(S(=O)(=O)Nc2nccs2)cc1F [Compound 209, 4-(3-(4-chloro-3-fluorobenzyl)-1-methyl-1H-pyrazol-5-ylamino)-3-fluoro-N-(thiazol-2-yl)benzenesulfonamide] | < 2000
2 | COc1ccccc1Cc1cc(Nc2ccc(S(=O)(=O)Nc3nccs3)cc2)n(C)n1 [Compound 127, 4-(3-(2-methoxybenzyl)-1-methyl-1H-pyrazol-5-ylamino)-N-(thiazol-2-yl)benzenesulfonamide] | 2000 to 10000
3 | Cc1cc(Nc2ccc(S(=O)(=O)Nc3nccs3)cc2)n(Cc2ccncc2)n1 [Compound 131, 4-(3-methyl-1-(pyridin-4-ylmethyl)-1H-pyrazol-5-ylamino)-N-(thiazol-2-yl)benzenesulfonamide] | > 1000
4 | O=S(=O)(Nc1cccnn1)c1ccc(Nc2ccn(Cc3ccc(Cl)cc3)n2)cc1F [Compound 260, 4-(1-(4-chlorobenzyl)-1H-pyrazol-3-ylamino)-2-fluoro-N-(pyridazin-3-yl)benzenesulfonamide] | > 1000
5 | Cn1nc(Cc2ccc(Cl)cc2)cc1Nc1ccc(S(=O)(=O)Nc2nccs2)cc1F [Compound 143, 4-(3-(4-chlorobenzyl)-1-methyl-1H-pyrazol-5-ylamino)-3-fluoro-N-(thiazol-2-yl)benzenesulfonamide] | < 2000
6 | Cn1nc(CC(C)(C)C)cc1Nc1ccc(S(=O)(=O)Nc2nccs2)cc1 [Compound 125, 4-(1-methyl-3-neopentyl-1H-pyrazol-5-ylamino)-N-(thiazol-2-yl)benzenesulfonamide] | 2000 to 10000
7 | Cc1cc(Nc2ccc(S(=O)(=O)Nc3ncc(Cl)s3)cc2)n(-c2ccccc2)n1 [Compound 163, N-(5-chlorothiazol-2-yl)-4-(3-methyl-1-phenyl-1H-pyrazol-5-ylamino)benzenesulfonamide] | 2000 to 10000
8 | CC(C)(C)n1nc(Cc2cccc(Cl)c2)cc1Nc1ccc(S(=O)(=O)Nc2nccs2)cc1F [Compound 195, 4-(1-tert-butyl-3-(3-chlorobenzyl)-1H-pyrazol-5-ylamino)-3-fluoro-N-(thiazol-2-yl)benzenesulfonamide] | < 2000
9 | O=S(=O)(Nc1nncs1)c1ccc(Nc2ccn(Cc3ccc(Cl)cc3)n2)cc1C(F)(F)F [Compound 265, 4-(1-(4-chlorobenzyl)-1H-pyrazol-3-ylamino)-N-(1,3,4-thiadiazol-2-yl)-2-(trifluoromethyl)benzenesulfonamide] | < 2000
10 | O=S(=O)(Nc1nccs1)c1ccc(Nc2nnc(Cc3ccc(Cl)cc3)o2)cc1 [Compound 118, 4-(5-(4-chlorobenzyl)-1,3,4-oxadiazol-2-ylamino)-N-(thiazol-2-yl)benzenesulfonamide] | > 1000
11 | O=S(=O)(Nc1nccs1)c1ccc2c(cnn2Cc2ccc(OC(F)(F)F)cc2)c1 [Compound 274, N-(thiazol-2-yl)-1-(4-(trifluoromethoxy)benzyl)-1H-indazole-5-sulfonamide] | < 2000
12 | O=C1CC(c2ccccc2)Cc2nc(Nc3ccc(S(=O)(=O)Nc4nccs4)cc3)sc21 (stereo not drawn) [Compound 135, 4-(7-oxo-5-phenyl-4,5,6,7-tetrahydrobenzo[d]thiazol-2-ylamino)-N-(thiazol-2-yl)benzenesulfonamide] | > 1000
13 | O=S(=O)(Nc1nccs1)c1ccc(Nc2cnn(Cc3ccc(Cl)cc3)c2)cn1 [Compound 231, 5-(1-(4-chlorobenzyl)-1H-pyrazol-4-ylamino)-N-(thiazol-2-yl)pyridine-2-sulfonamide] | 2000 to 10000
14 | Cc1nnc(NS(=O)(=O)c2ccc(Nc3ccn(Cc4ccc(Cl)cc4)n3)cc2F)o1 [Compound 261, 4-(1-(4-chlorobenzyl)-1H-pyrazol-3-ylamino)-2-fluoro-N-(5-methyl-1,3,4-oxadiazol-2-yl)benzenesulfonamide] | > 1000
15 | O=S(=O)(Nc1nccs1)c1ccc2nn(Cc3ccc(OC(F)(F)F)cc3)cc2c1 [Compound 275, N-(thiazol-2-yl)-2-(4-(trifluoromethoxy)benzyl)-2H-indazole-5-sulfonamide] | 2000 to 10000
16 | CC1(C)CC(=O)c2sc(Nc3ccc(S(=O)(=O)Nc4nccs4)cc3)nc2C1 [Compound 136, 4-(5,5-dimethyl-7-oxo-4,5,6,7-tetrahydrobenzo[d]thiazol-2-ylamino)-N-(thiazol-2-yl)benzenesulfonamide] | > 1000
17 | Cn1nc(Cc2cccc(Cl)c2)cc1Nc1ccc(S(=O)(=O)Nc2nccs2)cc1F [Compound 219, 4-(3-(3-chlorobenzyl)-1-methyl-1H-pyrazol-5-ylamino)-3-fluoro-N-(thiazol-2-yl)benzenesulfonamide] | < 2000
18 | Cc1cc(Nc2ccc(S(=O)(=O)Nc3nccs3)cc2)n(CC2CCCCC2)n1 [Compound 132, 4-(1-(cyclohexylmethyl)-3-methyl-1H-pyrazol-5-ylamino)-N-(thiazol-2-yl)benzenesulfonamide] | > 1000
19 | O=S(=O)(Nc1nccs1)c1ccc2nn(CCCCc3ccccc3)cc2c1 [Compound 279, 2-(4-phenylbutyl)-N-(thiazol-2-yl)-2H-indazole-5-sulfonamide] | 2000 to 10000

Further lines, results first:

Row | IC50 [nM] | Compound
20 | < 2000 | Cc1cc(Nc2cc(F)c(S(=O)(=O)Nc3nccs3)cc2F)n(-c2ccccc2)n1 [Compound 267, 2,5-difluoro-4-(3-methyl-1-phenyl-1H-pyrazol-5-ylamino)-N-(thiazol-2-yl)benzenesulfonamide]
21 | < 2000 | Cc1cc(Nc2ccc(S(=O)(=O)Nc3nccs3)c(F)c2)n(-c2c(Cl)cccc2Cl)n1 [Compound 189, 4-(1-(2,6-dichlorophenyl)-3-methyl-1H-pyrazol-5-ylamino)-2-fluoro-N-(thiazol-2-yl)benzenesulfonamide]
22 | > 1000 | COCc1nnc(NS(=O)(=O)c2ccc(Nc3cc(C)nn3-c3ccccc3)cc2F)s1 [Compound 249, 2-fluoro-N-(5-(methoxymethyl)-1,3,4-thiadiazol-2-yl)-4-(3-methyl-1-phenyl-1H-pyrazol-5-ylamino)benzenesulfonamide]
23 | < 2000 | O=S(=O)(Nc1nccs1)c1ccc(Nc2ccn(Cc3ccc(F)cc3)n2)c(F)c1 [Compound 226, 3-fluoro-4-(1-(4-fluorobenzyl)-1H-pyrazol-3-ylamino)-N-(thiazol-2-yl)benzenesulfonamide]
24 | > 1000 | Cc1cc(Nc2ccc(S(=O)(=O)Nc3nnc(C4CC4)s3)c(F)c2)n(-c2ccccc2)n1 [Compound 250, N-(5-cyclopropyl-1,3,4-thiadiazol-2-yl)-2-fluoro-4-(3-methyl-1-phenyl-1H-pyrazol-5-ylamino)benzenesulfonamide]
25 | 2000 to 10000 | Cc1cc(Nc2ccc(S(=O)(=O)Nc3nccs3)nc2)n(-c2ccccc2)n1 [Compound 234, 5-(3-methyl-1-phenyl-1H-pyrazol-5-ylamino)-N-(thiazol-2-yl)pyridine-2-sulfonamide]
26 | < 2000 | Cc1cc(Nc2ccc(S(=O)(=O)Nc3nccs3)c(F)c2)n(-c2ccc(F)cc2)n1 [Compound 178, 2-fluoro-4-(1-(4-fluorophenyl)-3-methyl-1H-pyrazol-5-ylamino)-N-(thiazol-2-yl)benzenesulfonamide]
27 | < 2000 | Cc1cc(Nc2ccc(S(=O)(=O)Nc3nccs3)c(F)c2)n(-c2ccc(F)cc2C(F)(F)F)n1 [Compound 187, 2-fluoro-4-(1-(4-fluoro-2-(trifluoromethyl)phenyl)-3-methyl-1H-pyrazol-5-ylamino)-N-(thiazol-2-yl)benzenesulfonamide]
28 | 2000 to 10000 | Cc1cc(Nc2ccc(S(=O)(=O)Nc3nnc(C)o3)c(F)c2)n(-c2ccccc2)n1 [Compound 237, 2-fluoro-N-(5-methyl-1,3,4-oxadiazol-2-yl)-4-(3-methyl-1-phenyl-1H-pyrazol-5-ylamino)benzenesulfonamide]
29 | 2000 to 10000 | Cc1cc(Nc2ccc(S(=O)(=O)Nc3nc(C)ns3)c(F)c2)n(-c2ccccc2)n1 [Compound 236, 2-fluoro-N-(3-methyl-1,2,4-thiadiazol-5-yl)-4-(3-methyl-1-phenyl-1H-pyrazol-5-ylamino)benzenesulfonamide]
30 | 2000 to 10000 | Cc1cc(Nc2ccc(S(=O)(=O)Nc3nccs3)cc2)n(Cc2ccc(Cl)cc2)n1 [Compound 128, 4-(1-(4-chlorobenzyl)-3-methyl-1H-pyrazol-5-ylamino)-N-(thiazol-2-yl)benzenesulfonamide]
31 | 2000 to 10000 | Cc1cc(Nc2ccn(Cc3ccc(Cl)cc3)n2)ccc1S(=O)(=O)Nc1nccs1 [Compound 271, 4-(1-(4-chlorobenzyl)-1H-pyrazol-3-ylamino)-2-methyl-N-(thiazol-2-yl)benzenesulfonamide]
32 | < 2000 | CC(C)(C)n1nc(Cc2ccc(Cl)c(F)c2)cc1Nc1ccc(S(=O)(=O)Nc2nccs2)c(F)c1 [Compound 166, 4-(1-tert-butyl-3-(4-chloro-3-fluorobenzyl)-1H-pyrazol-5-ylamino)-2-fluoro-N-(thiazol-2-yl)benzenesulfonamide]
33 | < 2000 | Cc1cc(Nc2ccc(S(=O)(=O)Nc3nccs3)c(F)c2)n(-c2c(F)cccc2F)n1 [Compound 190, 4-(1-(2,6-difluorophenyl)-3-methyl-1H-pyrazol-5-ylamino)-2-fluoro-N-(thiazol-2-yl)benzenesulfonamide]
34 | < 2000 | COc1cccc(-n2nc(C)cc2Nc2ccc(S(=O)(=O)Nc3nccs3)c(F)c2)c1 [Compound 220, 2-fluoro-4-(1-(3-methoxyphenyl)-3-methyl-1H-pyrazol-5-ylamino)-N-(thiazol-2-yl)benzenesulfonamide]
35 | < 2000 | Cc1cc(Nc2ccc(S(=O)(=O)Nc3nccs3)cc2F)n(-c2ccccc2F)n1 [Compound 203, 3-fluoro-4-(1-(2-fluorophenyl)-3-methyl-1H-pyrazol-5-ylamino)-N-(thiazol-2-yl)benzenesulfonamide]
36 | < 2000 | Cc1cc(Nc2ccc(S(=O)(=O)Nc3nccs3)c(F)c2)n(-c2cc(F)ccc2C)n1 [Compound 186, 2-fluoro-4-(1-(5-fluoro-2-methylphenyl)-3-methyl-1H-pyrazol-5-ylamino)-N-(thiazol-2-yl)benzenesulfonamide]
